According to patent publication US20250066335A1, “POLYSUBSTITUTED 4-HYDROXYPYRIDINE AND 4-HYDROXYQUINOLINE DERIVATIVES AS GPR84 ANTAGONISTS” (UNIVERSITY OF COPENHAGEN, priority 2021, published 2025):
Structures can show the parent of a compound that is named as a salt.

What follows are molecules tested against T1, GPR84 (Homo sapiens, UniProt Q9NQS5) (assay: PRESTO-Tango β-arrestin2 recruitment assay, GPR84 antagonistic activity). Details: antagonist activity in the Presto-TANGO assay; inhibition of the response from the agonist ZQ-16 (100 nM); HTLA cells.
T1 construct: expressed in transfected cells; host or cells: HTLA cells (HEK293 line stably expressing a tTA-dependent luciferase reporter and a β-arrestin2-TEV fusion gene), transiently transfected with PEI
T1 sequence (Q9NQS5 whole entry, the tested form may be a part): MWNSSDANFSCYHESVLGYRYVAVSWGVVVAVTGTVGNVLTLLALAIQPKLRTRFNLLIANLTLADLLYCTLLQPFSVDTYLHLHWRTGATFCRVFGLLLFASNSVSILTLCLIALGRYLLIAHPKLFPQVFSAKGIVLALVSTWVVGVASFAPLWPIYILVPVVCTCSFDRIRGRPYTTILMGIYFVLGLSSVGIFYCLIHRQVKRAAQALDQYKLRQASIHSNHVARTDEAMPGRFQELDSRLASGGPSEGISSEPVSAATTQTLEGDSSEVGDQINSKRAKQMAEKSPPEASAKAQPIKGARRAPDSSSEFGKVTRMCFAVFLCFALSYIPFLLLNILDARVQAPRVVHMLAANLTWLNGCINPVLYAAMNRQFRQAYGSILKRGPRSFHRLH
Assay type: cell-based
Method: PRESTO-Tango β-arrestin recruitment assay (W.K. Kroeze et al., 2015). HTLA cells (a HEK293 cell line stably expressing a tTA-dependent luciferase reporter and a β-arrestin2-TEV fusion gene) were maintained in Dulbecco's Modified Eagle's Medium (DMEM) supplemented with 10% Fetal Bovine Serum (dFBS), 100 U/mL penicillin and 100 μg/mL streptomycin, 2 μg/mL puromycin and 100 μg/mL hygromycin B in a humidified atmosphere at 37° C. in 5% CO2. For transfection, cells were plated at 9×10^6 to 10×10^6 cells per 15-cm cell-culture dish (day 1). The following day (day 2), cells were transfected by adding 5 μg DNA and 15 μg polyethylenimine (PEI) diluted in 1 mL Opti-MEM (Reduced Serum Medium supplied by ThermoFisher). On day 3, transfected cells were transferred at 25000 cells per well in 40 μl of medium into poly-l-lysine-coated and rinsed 384-well white, clear-bottomed cell-culture plates (Greiner Bio-One). On day 4, dilutions of the ligands to be tested were prepared in 1% dFBS DMEM and 10 μL were added to each well. On day 5, 20 μl per well of Bright-Glo solution (Promega) diluted 10-fold in assay buffer (Hanks' Balanced Salt Solution [HBSS], 20 mM HEPES, 1 mM CaCl2, 1 mM MgCl2, pH adjusted to 7.4 by 5 M NaOH) was added to each well. After incubation for 20 min at room temperature, luminescence was counted in an Enspire luminescence counter at 384 nm. Results in the form of relative luminescence units (RLU) were exported into Excel spreadsheets, and GraphPad Prism was used for analysis of data. To measure constitutive activity, no ligand was added on day 4.
The GPR84 antagonistic activity of the compounds was determined using the PRESTO-Tango β-arrestin2 recruitment assay (Assay I, see assays above), from which the concentration of each compound required for 50% inhibition (IC50) of the response from the agonist ZQ-16 (100 nM) was determined. The antagonistic activity for each compound is given in Table 1 as the pIC50, which is the negative log of the IC50 value when converted to molar.

Row | Compound | IC50 [nM]
1 | CCc1c(O)cc(OCC2COCCO2)nc1CCc1ccc(OCCO)cc1 (centres unmarked) [Example 35, 6-((1,4-Dioxan-2-yl)methoxy)-3-ethyl-2-(4-(2-hydroxyethoxy)phenethyl)pyridin-4-ol] | 0.741
2 | CCOC(=O)CCCCOc1ccc(CCc2nc(OCC3COCCO3)cc(O)c2CC)cc1 (centres unmarked) [Example 36, Ethyl 5-(4-(2-(6-((1,4-dioxan-2-yl)methoxy)-3-ethyl-4-hydroxypyridin-2-yl)ethyl)phenoxy)pentanoate] | 0.257
3 | CCc1c(O)cc(OCC2COCCO2)nc1CCc1ccc(OCC(N)=O)cc1 (centres unmarked) [Example 37, 2-(4-(2-(6-((1,4-Dioxan-2-yl)methoxy)-3-ethyl-4-hydroxypyridin-2-yl)ethyl)phenoxy)acetamide] | 2.88
4 | CCc1c(O)cc(OCC2COCCO2)nc1CCc1ccc(OCCOc2ccccc2)cc1 (centres unmarked) [Example 38, 6-((1,4-Dioxan-2-yl)methoxy)-3-ethyl-2-(4-(2-phenoxyethoxy)phenethyl)pyridin-4-ol] | 0.2
5 | CCc1c(O)cc(OCC2COCCO2)nc1CCc1ccc(OCCCS(C)(=O)=O)cc1 (centres unmarked) [Example 39, 6-((1,4-Dioxan-2-yl)methoxy)-3-ethyl-2-(4-(3-(methylsulfonyl)propoxy)phenethyl)pyridin-4-ol] | 0.871
6 | CCc1c(O)cc(OCC2COCCO2)nc1CCc1ccc(OCc2nc(C)no2)cc1 (centres unmarked) [Example 40, 6-((1,4-Dioxan-2-yl)methoxy)-3-ethyl-2-(4-((3-methyl-1,2,4-oxadiazol-5-yl)methoxy)phenethyl)pyridin-4-ol] | 2.95
7 | CCc1c(O)cc(OCC2COCCO2)nc1CCc1ccc(OCc2nc(C(=O)OC)co2)cc1 (centres unmarked) [Example 41, Methyl 2-((4-(2-(6-((1,4-dioxan-2-yl)methoxy)-3-ethyl-4-hydroxypyridin-2-yl)ethyl)phenoxy)methyl)oxazole-4-carboxylate] | 0.759
8 | CCc1c(O)cc(OCC2COCCO2)nc1CCc1ccc(OCCN2C(=O)c3ccccc3C2=O)cc1 (centres unmarked) [Example 42, 2-(2-(4-(2-(6-((1,4-Dioxan-2-yl)methoxy)-3-ethyl-4-hydroxypyridin-2-yl)ethyl)phenoxy)ethyl)isoindoline-1,3-dione] | 0.977
9 | CCc1c(O)cc(OCC2COCCO2)nc1CCc1ccc(O)cc1 (centres unmarked) [Example 43, 6-((1,4-dioxan-2-yl)methoxy)-3-ethyl-2-(4-hydroxyphenethyl)pyridin-4-ol] | 1.07
10 | [2H]C([2H])([2H])C([2H])([2H])Oc1ccc(C([2H])([2H])C([2H])([2H])c2nc(OCC3COCCO3)cc(O)c2CC)cc1 (centres unmarked) [Example 44, 6-((1,4-Dioxan-2-yl)methoxy)-2-(2-(4-(ethoxy-d5)phenyl)ethyl-1,1,2,2-d4)-3-ethylpyridin-4-ol] | 0.209
11 | CCc1c(O)cc(OCC2COCCO2)nc1CCc1ccc(OCCN)cc1 (centres unmarked) [Example 45, 6-((1,4-Dioxan-2-yl)methoxy)-2-(4-(2-aminoethoxy)phenethyl)-3-ethylpyridin-4-ol hydrochloride] | 2.34
12 | CCc1c(O)cc(OCC2COCCO2)nc1CCc1ccc(OCCCN)cc1 (centres unmarked) [Example 46, 6-((1,4-Dioxan-2-yl)methoxy)-2-(4-(3-aminopropoxy)phenethyl)-3-ethylpyridin-4-ol hydrochloride] | 0.832
13 | CCc1c(O)cc(OCC2COCCO2)nc1CCc1ccc(OCCCCC(=O)O)cc1 (centres unmarked) [Example 47, 5-(4-(2-(6-((1,4-Dioxan-2-yl)methoxy)-3-ethyl-4-hydroxypyridin-2-yl)ethyl)phenoxy)pentanoic acid] | 4.07
14 | CCc1c(O)cc(OCC2COCCO2)nc1CCc1ccc(OCc2nc(C(=O)O)co2)cc1 (centres unmarked) [Example 48, 2-((4-(2-(6-((1,4-Dioxan-2-yl)methoxy)-3-ethyl-4-hydroxypyridin-2-yl)ethyl)phenoxy)methyl)oxazole-4-carboxylic acid] | 5.37
15 | CCOc1ccc(CCc2nc(OCC3COCCO3)cc(O)c2CC)cn1 (centres unmarked) [Example 49, 6-((1,4-Dioxan-2-yl)methoxy)-2-(2-(6-ethoxypyridin-3-yl)ethyl)-3-ethylpyridin-4-ol] | 0.501
16 | CCOc1ncc(CCc2nc(OCC3COCCO3)cc(O)c2CC)cc1F (centres unmarked) [Example 50, 6-((1,4-Dioxan-2-yl)methoxy)-2-(2-(6-ethoxy-5-fluoropyridin-3-yl)ethyl)-3-ethylpyridin-4-ol] | 1.29
17 | CCOc1ccc(C2CC2c2nc(OCC3COCCO3)cc(O)c2CC)cc1 (centres unmarked) [Example 51, 6-((1,4-Dioxan-2-yl)methoxy)-2-(2-(4-ethoxyphenyl)cyclopropyl)-3-ethylpyridin-4-ol] | 87.1
18 | CCc1c(O)cc(OC[C@@H]2COCCO2)nc1CCc1ccc(OC)c(OC)c1 [Example 52, (S)-6-((1,4-dioxan-2-yl)methoxy)-2-(3,4-dimethoxyphenethyl)-3-ethylpyridin-4-ol] | 1.26
19 | CCc1c(O)cc(OC[C@@H]2COCCO2)nc1CCc1ccc(OC)cc1OC [Example 53, (S)-6-((1,4-dioxan-2-yl)methoxy)-2-(2,4-dimethoxyphenethyl)-3-ethylpyridin-4-ol] | 0.355
20 | CCc1c(O)cc(OC[C@@H]2COCCO2)nc1CCc1ccc(OC)c(C#N)c1 [Example 54, (S)-5-(2-(6-((1,4-dioxan-2-yl)methoxy)-3-ethyl-4-hydroxypyridin-2-yl)ethyl)-2-methoxybenzonitrile] | 1.55
21 | CCc1c(O)cc(OC[C@@H]2COCCO2)nc1CCc1ccc(OC)cc1C#N [Example 55, (S)-2-(2-(6-((1,4-dioxan-2-yl)methoxy)-3-ethyl-4-hydroxypyridin-2-yl)ethyl)-5-methoxybenzonitrile] | 0.55
22 | CCc1c(O)cc(OC[C@@H]2COCCO2)nc1CCCCc1ccccc1 [Example 56, (S)-6-((1,4-dioxan-2-yl)methoxy)-3-ethyl-2-(4-phenylbutyl)pyridin-4-ol] | 23.4
23 | CCCCc1ccc(-c2nc(OC[C@@H]3COCCO3)cc(O)c2CC)cc1 [Example 57, (S)-6-((1,4-dioxan-2-yl)methoxy)-2-(4-butylphenyl)-3-ethylpyridin-4-ol] | 120
